In patent US20120316199A1, “COMPOSITIONS AND METHODS FOR TREATING, CONTROLLING, REDUCING, OR AMELIORATING INFLAMMATORY PAIN” (priority 2011, published 2012):

Columns and labels:
[1] = tested on: New Zealand White rabbits; assay: Mortality/morbidity in New Zealand White rabbits, topical dosing four times daily; type: in vivo; conditions: for Mortality (rabbits that died or were euthanized between Days 11 and 33): right eye four times daily, Days 1-31
Procedure: (§1) On Days 1-31, animals received daily topical doses of the appropriate test article into the right eye. Animals were dosed four times per day, with doses administered 2 hours apart. Doses were administered using a calibrated 50-μL pipette. The eyelids were held close for 10 seconds immediately following dosing. The time of each dose administration was recorded.
Animals determined to be moribund were euthanized with an intravenous injection of commercial euthanasia solution.

[2] = tested on: rabbit eyes; assay: Ophthalmic observations (slit lamp, McDonald Shadduck scores) in New Zealand White rabbits; type: in vivo; design: key to Ophthalmic Observation (Slit-Lamp): AN = Appeared normal; key to Cornea Score: CORNEA 1 = Some loss of transparency. Only the epithelium and/or the anterior half of the stoma are involved. The underlying structures are clearly visible although some cloudiness may be readily apparent
Procedure: Prior to placement on study, each animal underwent a pre-treatment ophthalmic examination (slit lamp and indirect ophthalmoscopy). Observations were scored according to the McDonald Shadduck system and recorded using a standardized data collection sheet.
as §1
Ophthalmic examinations (slit lamp) were performed prior to the first dosing on Days 5, 12, 22, 26, and 33. Ocular findings were scored according to the McDonald Shadduck system and recorded using a standardized data collection sheet.

[3] = tested on: pain following cataract surgery; assay: Clinical study after cataract surgery: Grade 0 pain; type: in vivo, human
Description: There were 8 treatment groups in this study, consisting of three drug doses, vehicle and three dosing frequencies (see also Table 4-1): • Group A: 1% BOL-303242-X ophthalmic suspension, two times per day (BID) • Group B: 2% BOL-303242-X ophthalmic suspension, one time per day (QD) • Group C: 2% BOL-303242-X ophthalmic suspension, BID • Group D: 2% BOL-303242-X ophthalmic suspension, four times per day (QID) • Group E: 3% BOL-303242-X ophthalmic suspension, QD • Group F: 3% BOL-303242-X ophthalmic suspension, BID • Group G: 3% BOL-303242-X ophthalmic suspension, QID • Group H: Vehicle for BOL-303242-X (divided equally into QID, BID, and QD)
Subjects self-administered study drug, instilling 1 to 2 drops of study drug into the study eye: QID at approximately 4 hour intervals, BID at approximately 12 hour intervals, or QD once in the morning, for 14 days. The initial dose occurred in the clinic at Visit 3 and the final dose was on the day before Visit 6 (postoperative Day 15±1 day). Subjects were examined and evaluated according to the following schedule:
Visit 1 (screening), Visit 2 (cataract surgery), Visit 3 (postoperative Day 1), Visit 4 (postoperative Day 3±1 day), Visit 5 (postoperative Day 8±1 day), Visit 6 (postoperative Day 15±1 day), Visit 7 (postoperative Day 18±1 day). Subject assessments included adverse events (AEs), concomitant medications, ocular symptoms, pinholed Snellen visual acuity (VA), intraocular pressure (IOP), ocular signs (biomicroscopy), fundoscopy, and study drug drop sensation. In addition, subject diaries were collected and reviewed for accuracy and treatment compliance.
Secondary Efficacy: The secondary efficacy endpoints for this study were the proportions of subjects with Grade 0 pain at Visit 5 (postoperative Day 8) and at each visit, complete resolution of AC cells at each visit, complete resolution of AC cells and flare at each visit, complete resolution of AC flare at each visit, change from baseline to each follow-up visit in AC cells and AC flare combined and separately, ocular symptoms.

[4] = tested on: PGE2 release by IL-1β-induced human conjunctival fibroblasts (HConF); assay: IL-1β-induced PGE2 release in human conjunctival fibroblasts (ELISA); type: cell-based; conditions: 3, 10, 30, 100, 300, 1000 nM, 18 hours; ELISA (FIG. 6)
Procedure: Human conjunctival fibroblasts (HConF) were seeded in 24-well plates in complete Fibroblast Medium (FM) which contained 2% fetal bovine serum (FBS) and Fibroblast Growth Supplement (FGS). After reaching confluence (about 95%), cells were conditioned in basic FM that had been supplemented with 0.5% charcoal-dextran treated fetal bovine serum (CD-FBS) and without Fibroblast Growth Supplement (FGS) for 24 hours. […] Plates were performed in triplicate. Culture media were evaluated for PGE, release by ELISA.

[5] = tested on: IL-1β-stimulated cytokine expression in primary human corneal epithelial cells; assay: IL-1β-stimulated cytokine production in primary human corneal epithelial cells (30-cytokine Luminex kit); conditions: HCECs
Procedure: Primary HCECs were seeded in 24-well plates. […] Each treatment was performed in triplicate. Media were collected and used for determination of cytokine content using a 30-cytokine Luminex kit. Cell viability was determined by alamarBlue assay (LP06013).
Median fluorescence intensity (MFI) was used to obtain the concentration of each cytokines in pg/ml based on the standard curve of each cytokine assayed by Luminex. The linear range of the standard curve for each cytokine was used for determination of cytokine concentration. Duplicate values for each sample were averaged. Data were expressed as mean±SD. Statistical analysis was performed using one-way ANOVA-Dunnett's test, and P<0.05 was considered statistically significant.

[6] = Group D, 1 mg/g (0.05 mg/dose) 4 x daily, individual rabbit
[7] = Group B, 10 mg/g, treated right eye, individual animals
[8] = Group C, 5 mg/g, treated right eye, individual animals

Structure (SMILES): Cc1ccc2c(NC[C@](O)(CC(C)(C)c3cc(F)cc4c3OCC4)C(F)(F)F)cccc2n1 [BOL-303242-X, mapracorat]
- Mortality (rabbits that died or were euthanized between Days 11 and 33) ([1]; 0.05 mg/dose (0.1% dexamethasone suspension or 1 mg/g BOL-303242-X)): one of ten
- Mortality (rabbits that died or were euthanized between Days 11 and 33) ([1]; 5 mg/g suspension ([…])): two of ten
- Morbidity noted in a surviving rabbit ([1]; 10 mg/g (0.5 mg/dose), one surviving rabbit (Group B, No. 3048)): diarrhea on Day 18
- Mortality (rabbits that died or were euthanized between Days 11 and 33) ([1]; 10 mg/g suspension (0.5 mg/dose)): one of ten
- Mortality rate per dose level ([1]; 0.05, 0.25, or 0.5 mg/dose four times daily up to 31 days): 1-2 deaths per 10 rabbits
- Day of Death (day euthanized or found dead) ([1]; Group B, 10 mg/g (0.5 mg/dose) 4 x daily, individual rabbit): 11
- Day of Death (day euthanized or found dead) [1, 6]: 29
- Recorded Notes on death [1, 6]: Found dead.
- Slit-lamp ophthalmic finding in dosed right eye ([2]; 1 mg/g suspension, one eye (Group D, No. 3043)): subconjunctival hemorrhage
- Slit-lamp ophthalmic finding in dosed right eye ([2]; 10 mg/g suspension, one eye (Group B, No. 3083)): pinpoint corneal scar
- Surface area of cornea involvement Score ([2]; Group B, 10 mg/g, treated right eye, animal 3083, Day 5): 1 (SURFACE AREA OF CORNEA INVOLVEMENT 1 = 1-25% area of stromal cloudiness.)
- Cornea Score ([2]; Group B, 10 mg/g, treated right eye, animal 3083, Day 5, pinpoint corneal scar): 1^(2)
- Conjunctival congestion Score [2, 7]: 1
- Ophthalmic Observation (Slit-Lamp) [2, 7]: AN
- Conjunctival congestion Score [2, 8]: 1
- Ophthalmic Observation (Slit-Lamp) [2, 8]: AN
- Conjunctival congestion Score ([2]; Group D, 1 mg/g, treated right eye, individual animal, Day 22): 1
- Ophthalmic Observation (Slit-Lamp) ([2]; Group D, 1 mg/g, treated right eye, individual animals): AN
- Ophthalmic observation associated with unilateral topical instillation ([2]; four times daily up to 31 days, BOL-303242-X 0.05, 0.25, or 0.5 mg/dose, dexamethasone 0.05 mg/dose): sporadic mild conjunctival congestion
- proportion of subjects with Grade 0 pain ([3]; 2% QID, Visit 5 (postoperative Day 8), vehicle 50.0%): 78.3%
- proportion of subjects with Grade 0 pain ([3]; 3% BID, Visit 7 (postoperative Day 18), vehicle 31.7%): 63.3%
- proportion of subjects with Grade 0 pain ([3]; 3% QID, Visit 7 (postoperative Day 18), vehicle 31.7%): 58.3%
- Inhibition of PGE2 production by IL-1β-induced HConF [4]: successfully inhibits
- Potency relative to dexamethasone, inhibition of IL-1β-stimulated IL-6, IL-7, TGF-α, TNF-α, VGEF, and MCP-1 [5]: comparable potency
- Potency relative to dexamethasone, inhibition of IL-1β-stimulated production of G-CSF [5]: more potent than dexamethasone
- Potency relative to dexamethasone, inhibition of IL-1β-stimulated production of GM-CSF, IL-8, and RANTES [5]: somewhat less potent than dexamethasone
- Inhibition of IL-1β-stimulated production of IL-6, IL-7, MCP-1, TGF-α, TNF-α and VEGF ([5]; 10 ng/ml IL-1β, 18 h, comparable potency of both compounds): significantly inhibited
- Effect on IL-1β-stimulated G-CSF production ([5]; 18 h): significantly inhibited
- Inhibition of IL-1β-stimulated production of GM-CSF, IL-8, and RANTES ([5]; 18 h, less potency compared to dexamethasone): significantly inhibited
